Test system: 616215-338-R-J1-PDC complex spheroid viability
Test: Anticancer human tumor 616215-338-R-J1-PDC patient-derived colon adenocarcinoma cell line growth inhibition [RAS]
Settings: for IC50: curve of first compound; for viability, T/C: stronger effect = lower value; active means viability on the fitted dose curve at most 10% of control; inactive means the rest
How it was run: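 Agents were tested in combination matrices in half-log decrements from a top concentration at or near clinical Cmax (10 microM if undetermined). Targets were multi-cell spheroids of tumour lines plus HUVEC and MSC stromal cells.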

[1] = second compound 0.000949 µM, first compound 0.0316 µM
[2] = second compound 0.000949 µM, first compound 0.1 µM
[3] = second compound 0.000949 µM, first compound 0.316 µM
[4] = second compound 0.000949 µM, first compound 1 µM
[5] = second compound 0.000949 µM, first compound 3.16 µM
[6] = second compound 0.000949 µM, first compound 10 µM
[7] = second compound 0.003 µM, first compound 0.0316 µM
[8] = second compound 0.003 µM, first compound 0.1 µM
[9] = second compound 0.003 µM, first compound 0.316 µM
[10] = second compound 0.003 µM, first compound 1 µM
[11] = second compound 0.003 µM, first compound 3.16 µM
[12] = second compound 0.003 µM, first compound 10 µM
[13] = second compound 0.00949 µM, first compound 0.0316 µM
[14] = second compound 0.00949 µM, first compound 0.1 µM
[15] = second compound 0.00949 µM, first compound 0.316 µM
[16] = second compound 0.00949 µM, first compound 1 µM
[17] = second compound 0.00949 µM, first compound 3.16 µM
[18] = second compound 0.00949 µM, first compound 10 µM
[19] = second compound 0.03 µM, first compound 0.0316 µM
[20] = second compound 0.03 µM, first compound 0.1 µM
[21] = second compound 0.03 µM, first compound 0.316 µM
[22] = second compound 0.03 µM, first compound 1 µM
[23] = second compound 0.03 µM, first compound 3.16 µM
[24] = second compound 0.03 µM, first compound 10 µM
[25] = second compound 0.0949 µM, first compound 0.0316 µM
[26] = second compound 0.0949 µM, first compound 0.1 µM
[27] = second compound 0.0949 µM, first compound 0.316 µM
[28] = second compound 0.0949 µM, first compound 1 µM
[29] = second compound 0.0949 µM, first compound 3.16 µM
[30] = second compound 0.0949 µM, first compound 10 µM
[31] = second compound 0.3 µM, first compound 0.0316 µM
[32] = second compound 0.3 µM, first compound 0.1 µM
[33] = second compound 0.3 µM, first compound 0.316 µM
[34] = second compound 0.3 µM, first compound 1 µM
[35] = second compound 0.3 µM, first compound 3.16 µM
[36] = second compound 0.3 µM, first compound 10 µM
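Further: spheroids exposed to agents for seven days before viability readout.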
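Wherever viability, T/C is given: 100% = DMSO vehicle control viability.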

CC1(O)CCCC1n1c(=O)c(C(F)F)cc2cnc(NC3CCN(S(C)(=O)=O)CC3)nc21 (stereo not given) + CCn1c(-c2cccnc2C(C)OC)c2c3cc(ccc31)N1CCOC(CC(NC(=O)C(C(C)C)N(C)C(=O)C3(F)CCN(C(=O)C#CC(C)(C)N(C)C)CC3)C(=O)N3CCCC(N3)C(=O)OCC(C)(C)C2)C1
1290 nM: IC50 (second compound 0.003 µM)
inactive: viability, T/C [1] 112% | viability, T/C [2] 105% | viability, T/C [3] 57.5% | viability, T/C [4] 53.3% | viability, T/C [5] 48.3% | viability, T/C [6] 3.43% | viability, T/C [7] 114% | viability, T/C [8] 109% | viability, T/C [9] 58.3% | viability, T/C [10] 56.5% | viability, T/C [11] 49.9% | viability, T/C [12] 3.17% | viability, T/C [13] 109% | viability, T/C [14] 112% | viability, T/C [15] 61.9% | viability, T/C [16] 55.3% | viability, T/C [17] 50.3% | viability, T/C [18] 3.71% | viability, T/C [19] 118% | viability, T/C [20] 112% | viability, T/C [21] 55.1% | viability, T/C [22] 50% | viability, T/C [23] 46% | viability, T/C [25] 108% | viability, T/C [26] 102% | viability, T/C [27] 60.8% | viability, T/C [28] 51% | viability, T/C [29] 49.8% | viability, T/C [30] 4.02% | viability, T/C [31] 95.5% | viability, T/C [32] 74.3% | viability, T/C [33] 44.1% | viability, T/C [34] 52.6% | viability, T/C [35] 52.4% | viability, T/C [36] 3.81%
830 nM: IC50 (second compound 0.3 µM)
1180 nM: IC50 (second compound 0.000949 µM) | IC50 (second compound 0.0949 µM)
1340 nM: IC50 (second compound 0.00949 µM)
1160 nM: IC50 (second compound 0.03 µM)
active: viability, T/C [24] 4.07%

CCC(CC)c1cc(NC2CCC(N)C2)n2nccc2n1 (stereo not given) + CCn1c(-c2cccnc2C(C)OC)c2c3cc(ccc31)N1CCOC(CC(NC(=O)C(C(C)C)N(C)C(=O)C3(F)CCN(C(=O)C#CC(C)(C)N(C)C)CC3)C(=O)N3CCCC(N3)C(=O)OCC(C)(C)C2)C1
1570 nM: IC50 (second compound 0.3 µM)
inactive: viability, T/C [1] 107% | viability, T/C [2] 89.4% | viability, T/C [3] 109% | viability, T/C [4] 107% | viability, T/C [7] 101% | viability, T/C [8] 94.6% | viability, T/C [9] 89.1% | viability, T/C [10] 106% | viability, T/C [13] 92.2% | viability, T/C [14] 92.8% | viability, T/C [15] 101% | viability, T/C [16] 111% | viability, T/C [19] 101% | viability, T/C [20] 93.3% | viability, T/C [21] 91.2% | viability, T/C [22] 109% | viability, T/C [25] 103% | viability, T/C [26] 110% | viability, T/C [27] 106% | viability, T/C [28] 102% | viability, T/C [31] 114% | viability, T/C [32] 112% | viability, T/C [33] 116% | viability, T/C [34] 82.1%
1820 nM: IC50 (second compound 0.000949 µM)
active: viability, T/C [5] 0.55% | viability, T/C [6] 0.29% | viability, T/C [11] 0.5% | viability, T/C [12] 0.26% | viability, T/C [17] 0.46% | viability, T/C [18] 0.26% | viability, T/C [23] 0.45% | viability, T/C [24] 0.22% | viability, T/C [29] 0.44% | viability, T/C [30] 0.27% | viability, T/C [35] 0.46% | viability, T/C [36] 0.29%
1760 nM: IC50 (second compound 0.003 µM)
1770 nM: IC50 (second compound 0.00949 µM) | IC50 (second compound 0.03 µM)
1810 nM: IC50 (second compound 0.0949 µM)

CCN1CCN(Cc2ccc(Nc3ncc(F)c(-c4cc(F)c5nc(C)n(C(C)C)c5c4)n3)nc2)CC1 + CCn1c(-c2cccnc2C(C)OC)c2c3cc(ccc31)N1CCOC(CC(NC(=O)C(C(C)C)N(C)C(=O)C3(F)CCN(C(=O)C#CC(C)(C)N(C)C)CC3)C(=O)N3CCCC(N3)C(=O)OCC(C)(C)C2)C1
inactive: viability, T/C (second compound 0.000949 µM, first compound 0.00316 µM) 104% | viability, T/C (second compound 0.000949 µM, first compound 0.01 µM) 103% | viability, T/C [1] 104% | viability, T/C [2] 122% | viability, T/C [3] 144% | viability, T/C [4] 66.5% | viability, T/C (second compound 0.003 µM, first compound 0.00316 µM) 102% | viability, T/C (second compound 0.003 µM, first compound 0.01 µM) 103% | viability, T/C [7] 105% | viability, T/C [8] 121% | viability, T/C [9] 141% | viability, T/C [10] 59.2% | viability, T/C (second compound 0.00949 µM, first compound 0.00316 µM) 102% | viability, T/C (second compound 0.00949 µM, first compound 0.01 µM) 104% | viability, T/C [13] 108% | viability, T/C [14] 128% | viability, T/C [15] 134% | viability, T/C [16] 56.8% | viability, T/C (second compound 0.03 µM, first compound 0.00316 µM) 110% | viability, T/C (second compound 0.03 µM, first compound 0.01 µM) 105% | viability, T/C [19] 118% | viability, T/C [20] 122% | viability, T/C [21] 143% | viability, T/C [22] 67.1% | viability, T/C (second compound 0.0949 µM, first compound 0.00316 µM) 109% | viability, T/C (second compound 0.0949 µM, first compound 0.01 µM) 113% | viability, T/C [25] 116% | viability, T/C [26] 121% | viability, T/C [27] 129% | viability, T/C [28] 50% | viability, T/C (second compound 0.3 µM, first compound 0.00316 µM) 117% | viability, T/C (second compound 0.3 µM, first compound 0.01 µM) 104% | viability, T/C [31] 113% | viability, T/C [32] 116% | viability, T/C [33] 108% | viability, T/C [34] 46%
930 nM: IC50 (second compound 0.3 µM)
> 1000 nM: IC50 (second compound 0.000949 µM) | IC50 (second compound 0.003 µM) | IC50 (second compound 0.00949 µM) | IC50 (second compound 0.03 µM) | IC50 (second compound 0.0949 µM)

C[C@@H](NC(=O)c1ncnc(N)c1Cl)c1ncc(C(=O)Nc2cc(C(F)(F)F)c(Cl)cn2)s1 + CCn1c(-c2cccnc2C(C)OC)c2c3cc(ccc31)N1CCOC(CC(NC(=O)C(C(C)C)N(C)C(=O)C3(F)CCN(C(=O)C#CC(C)(C)N(C)C)CC3)C(=O)N3CCCC(N3)C(=O)OCC(C)(C)C2)C1
> 10000 nM: IC50 (second compound 0.000949 µM) | IC50 (second compound 0.003 µM) | IC50 (second compound 0.00949 µM) | IC50 (second compound 0.03 µM) | IC50 (second compound 0.0949 µM)
inactive: viability, T/C [1] 108% | viability, T/C [2] 103% | viability, T/C [3] 100% | viability, T/C [4] 117% | viability, T/C [5] 113% | viability, T/C [6] 61.5% | viability, T/C [7] 94.2% | viability, T/C [8] 105% | viability, T/C [9] 104% | viability, T/C [10] 120% | viability, T/C [11] 107% | viability, T/C [12] 68% | viability, T/C [13] 103% | viability, T/C [14] 100% | viability, T/C [15] 101% | viability, T/C [16] 112% | viability, T/C [17] 121% | viability, T/C [18] 72.7% | viability, T/C [19] 101% | viability, T/C [20] 98.6% | viability, T/C [21] 116% | viability, T/C [22] 111% | viability, T/C [23] 112% | viability, T/C [24] 68.6% | viability, T/C [25] 109% | viability, T/C [26] 115% | viability, T/C [27] 116% | viability, T/C [28] 86.1% | viability, T/C [29] 90% | viability, T/C [30] 54.6% | viability, T/C [31] 113% | viability, T/C [32] 111% | viability, T/C [33] 100% | viability, T/C [34] 79.8% | viability, T/C [35] 66.5% | viability, T/C [36] 39.7%
6230 nM: IC50 (second compound 0.3 µM)

Cc1nc(N2CCC3(CC2)COC(C)C3N)c(CO)nc1Sc1ccnc(N)c1Cl (stereo not given) + CCn1c(-c2cccnc2C(C)OC)c2c3cc(ccc31)N1CCOC(CC(NC(=O)C(C(C)C)N(C)C(=O)C3(F)CCN(C(=O)C#CC(C)(C)N(C)C)CC3)C(=O)N3CCCC(N3)C(=O)OCC(C)(C)C2)C1
7520 nM: IC50 (second compound 0.3 µM)
inactive: viability, T/C [1] 112% | viability, T/C [2] 106% | viability, T/C [3] 117% | viability, T/C [4] 96.8% | viability, T/C [5] 80.1% | viability, T/C [6] 72.3% | viability, T/C [7] 110% | viability, T/C [8] 112% | viability, T/C [9] 103% | viability, T/C [10] 92.6% | viability, T/C [11] 79.6% | viability, T/C [12] 69.6% | viability, T/C [13] 113% | viability, T/C [14] 108% | viability, T/C [15] 111% | viability, T/C [16] 93.3% | viability, T/C [17] 92.6% | viability, T/C [18] 62.8% | viability, T/C [19] 116% | viability, T/C [20] 114% | viability, T/C [21] 101% | viability, T/C [22] 97.8% | viability, T/C [23] 86.1% | viability, T/C [24] 59.1% | viability, T/C [25] 117% | viability, T/C [26] 120% | viability, T/C [27] 96.8% | viability, T/C [28] 74.2% | viability, T/C [29] 62.5% | viability, T/C [30] 53.8% | viability, T/C [31] 102% | viability, T/C [32] 84% | viability, T/C [33] 77% | viability, T/C [34] 68.3% | viability, T/C [35] 52.6% | viability, T/C [36] 49.2%
> 10000 nM: IC50 (second compound 0.000949 µM) | IC50 (second compound 0.003 µM) | IC50 (second compound 0.00949 µM) | IC50 (second compound 0.03 µM) | IC50 (second compound 0.0949 µM)

From PubChem BioAssay AID2060898 (Molecular Pharmacology Branch, DTP, NCI, 2025)
